The values that follow come from patent US20220265847A1, “METHODS AND COMPOSITIONS FOR TREATING NON-SMALL CELL LUNG CANCER” (Board of Regents, The University of Texas System, priority 2019, published 2022).

Format in all cases: cell-based
Assay [1] relates to HCC827 cells with induced expression of ZEB1. The assay can be described thus: EGFR TKI sensitivity of HCC827 cells after induced ZEB1 expression (EMT induction). To be noted: HCC827 (EGFR TKI sensitive) cells with induced ZEB1 expression; FIG. 4B-D / 10B. An excerpt:
Next, the inventors investigated the impact of EMT on CD70 expression in EGFR mutant NSCLC cell lines. The inventors induced EMT through forced expression of ZEB1 in HCC827 parental (EGFR TKI sensitive) cells. […] The inventors next evaluated whether CD70 expression was associated with a mesenchymal phenotype in NSCLC cell lines and human lung adenocarcinomas using the TCGA database.

The subject of assay [2] is HCC827 (EGFR mutant) cells. The assay can be described thus: Sensitivity of HCC827 parental cells to EGFR TKIs compared to EGFR TKI resistant (ER) variants. The following applies: FIG. 1.
Assay [3] concerns HCC4006 (EGFR mutant) cells. The assay can be described thus: Sensitivity of HCC4006 parental cells to EGFR TKIs compared to EGFR TKI resistant (ER) variants. To be noted: FIG. 1. An excerpt: While EGFR mutant NSCLC patients are initially responsive to EGFR tyrosine kinase inhibitors (TKI), resistant disease inevitably emerges. The inventors derived a panel of NSCLC cell lines with acquired resistance to EGFR TKIs. […] CD70 is typically expressed on T-cells and B-cells, but can also be expressed by some malignant cells. Expression of CD70 by tumor cells is thought to contribute to an immunosuppressive environment by affecting/attracting regulatory T cells and promoting T cell apoptosis and exhaustion.
While EGFR mutant NSCLC patients are initially responsive to EGFR tyrosine kinase inhibitors (TKI), resistant disease inevitably emerges. The inventors derived a panel of NSCLC cell lines with acquired resistance to EGFR TKIs. […] Once tumors were visualized by CT imaging, doxycycline was withdrawn from a subset of animals to mimic EGFR inhibition. […] Tumors were collected an CD70 expression was analyzed by immunohistochemistry. […] Next, the inventors evaluated CD70 expression in EGFR mutant EGFRTKI naïve NSCLC clinical specimens and EGFR mutant NSCLC specimens collected after EGFR TKI resistance.

In assay [4] the test system is HCC4006 osimertinib-resistant (OR) cells. The assay can be described thus: Soluble CD27 stimulation of CD70, downstream signalling by Western blotting. To be noted: FIG. 12. The protocol: FIG. 12. Stimulation of CD70 activates signal transduction pathways in EGFR TKI resistant cells. HCC4006 osimertinib-resistant (OR) cells were treated with soluble CD27, the binding partner of CD70, and the effect on downstream signal transduction pathways was evaluated by Western blotting.
Binding of CD27 to CD70 induces activation of signal transduction pathways downstream of CD70. To investigate the potential impact of CD70 signaling on EGFR TKI resistant cells, the inventors stimulated EGR TKI resistant cells with recombinant soluble CD27.
For orientation: A western blot detects proteins with antibodies after separation by electrophoresis.

In another assay the test system is H1975 OR16. The assay can be described thus: CD70 ADC relative cell viability. To be noted: H1975 OR16 vs H1975 parental (CD70 low); increasing concentrations; FIG. 14 and 16. An excerpt:
(§1) FIG. 14A-C. CD70 antibody-drug conjugates (ADCs) target CD70+ EGFR TKI resistant cell in vitro.
(§2) To determine whether CD70 antibody drug conjugates (ADCs) are a valid approach for targeting EGFR TKI resistant cells, the inventors treated H1975 cells (CD70 low and EGFR TKI sensitive) and H1975 OR5 and H1975 OR16 (both EGFR TKI resistant and CD70 high) with increasing concentrations of the CD70 ADCs cuzatuzumab-MMAE or vorsetuzumab-MMAE. […] The inventors further observed an additive anti-tumor cell effect when osimertinib was combined with anti-CD70 ADCs. (FIG. 15).

The test system of a further assay is H1975 OR5. The assay can be described thus: CD70 ADC relative cell viability.
Description: as §1, §2

Regarding `C#Cc1cccc(Nc2ncnc3cc(OCCOC)c(OCCOC)cc23)c1` [erlotinib], in assay [1], the “sensitivity to EGFR TKI after ZEB1 expression” value is reported as “resistant”. In addition, the “sensitivity to EGFR TKI” value in assay [2] and in assay [3] was “sensitive” in each case.
`C=CC(=O)Nc1cc(Nc2nccc(-c3cn(C)c4ccccc34)n2)c(OC)cc1N(C)CCN(C)C` [osimertinib]: in assay [1], the “sensitivity to EGFR TKI after ZEB1 expression” value was “resistant”. For the same molecule, the “sensitivity to EGFR TKI” value in assay [2] and in assay [3] was “sensitive” in each case.

B1: soluble CD27: recombinant soluble CD27, the binding partner of CD70 (protein, UniProt P26842 20-191, looked up)
extracellular domain: ATPAPKSCPERHYWAQGKLCCQMCEPGTFLVKDCDQHRKAAQCDPCIPGVSFSPDHHTRPHCESCRHCNSGLLVRNCTITANAECACRNGWQCRDKECTECDPLPNPSLTARSSQALSPHPQPTHLPYVSEMLEARTAGHMQTLADFRQLPARTLSTHWPPQRSLCSSDFIR
modifications: extracellular domain
As for B1, in assay [4], the “effect on downstream signal transduction pathways” value is “phosphorylation of Akt and ERK”.

B2: vorsetuzumab-MMAE (conjugate, chains of the INN, looked up)
VH: QVQLVQSGAEVKKPGASVKVSCKASGYTFTNYGMNWVRQAPGQGLKWMGWINTYTGEPTYADAFKGRVTMTRDTSISTAYMELSRLRSDDTAVYYCARDYGDYGMDYWGQGTTVTVSS
VL: DIVMTQSPDSLAVSLGERATINCRASKSVSTSGYSFMHWYQQKPGQPPKLLIYLASNLESGVPDRFSGSGSGTDFTLTISSLQAEDVAVYYCQHSREVPWTFGQGTKVEIK
modifications: MMAE payload
Take B2: the “sensitivity to CD70 ADC versus H1975 parental cells” value is on record as “more sensitive” in the assay with H1975 OR16; “more sensitive” with H1975 OR5 (H1975 OR5 vs H1975 parental (CD70 low), increasing concentrations, FIG. 14 and 16). Besides, the “anti-tumor cell activity (relative cell viability)” value in the assay with H1975 OR5 (H1975 OR5, CD70 high, EGFR TKI resistant, FIG. 14) is “anti-tumor cell activity”.
